Assay [1] concerns the target T1, Eukaryotic translation initiation factor 5B (Homo sapiens, UniProt O60841).
T1 sequence (O60841 whole entry): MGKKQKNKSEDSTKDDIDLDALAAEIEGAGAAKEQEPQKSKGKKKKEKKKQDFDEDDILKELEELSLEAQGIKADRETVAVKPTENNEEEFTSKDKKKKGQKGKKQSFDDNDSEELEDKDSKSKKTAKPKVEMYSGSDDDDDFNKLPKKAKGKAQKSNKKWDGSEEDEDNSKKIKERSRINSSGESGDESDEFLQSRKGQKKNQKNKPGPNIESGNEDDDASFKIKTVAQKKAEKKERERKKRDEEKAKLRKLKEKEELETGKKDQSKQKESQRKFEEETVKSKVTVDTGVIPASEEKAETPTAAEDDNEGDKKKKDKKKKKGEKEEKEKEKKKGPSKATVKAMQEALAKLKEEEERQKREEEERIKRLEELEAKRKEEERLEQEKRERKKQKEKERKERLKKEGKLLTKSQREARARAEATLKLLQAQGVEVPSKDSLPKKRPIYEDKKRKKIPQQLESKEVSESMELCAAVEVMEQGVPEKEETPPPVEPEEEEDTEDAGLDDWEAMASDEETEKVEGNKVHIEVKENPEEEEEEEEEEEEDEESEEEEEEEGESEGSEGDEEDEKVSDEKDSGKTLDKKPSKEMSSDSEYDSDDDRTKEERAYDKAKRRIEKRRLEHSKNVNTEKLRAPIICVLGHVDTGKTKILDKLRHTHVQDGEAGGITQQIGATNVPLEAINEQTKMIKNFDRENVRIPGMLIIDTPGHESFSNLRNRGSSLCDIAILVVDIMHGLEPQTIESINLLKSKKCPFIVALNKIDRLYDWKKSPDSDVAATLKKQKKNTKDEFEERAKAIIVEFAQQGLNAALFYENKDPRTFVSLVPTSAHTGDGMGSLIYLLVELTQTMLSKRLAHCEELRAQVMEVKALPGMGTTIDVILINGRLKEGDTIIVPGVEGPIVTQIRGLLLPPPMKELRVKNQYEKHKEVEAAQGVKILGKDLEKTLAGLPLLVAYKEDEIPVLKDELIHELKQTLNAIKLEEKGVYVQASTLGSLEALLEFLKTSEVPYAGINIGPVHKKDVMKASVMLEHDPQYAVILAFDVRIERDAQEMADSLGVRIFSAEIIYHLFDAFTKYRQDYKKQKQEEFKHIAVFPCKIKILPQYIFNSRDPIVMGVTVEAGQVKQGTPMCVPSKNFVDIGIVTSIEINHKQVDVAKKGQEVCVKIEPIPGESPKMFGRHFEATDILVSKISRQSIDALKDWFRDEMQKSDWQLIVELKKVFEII

Assay [2] concerns the target T2, MAP kinase-activated protein kinase 5 (Homo sapiens, UniProt Q8IW41).
T2 sequence (Q8IW41 whole entry): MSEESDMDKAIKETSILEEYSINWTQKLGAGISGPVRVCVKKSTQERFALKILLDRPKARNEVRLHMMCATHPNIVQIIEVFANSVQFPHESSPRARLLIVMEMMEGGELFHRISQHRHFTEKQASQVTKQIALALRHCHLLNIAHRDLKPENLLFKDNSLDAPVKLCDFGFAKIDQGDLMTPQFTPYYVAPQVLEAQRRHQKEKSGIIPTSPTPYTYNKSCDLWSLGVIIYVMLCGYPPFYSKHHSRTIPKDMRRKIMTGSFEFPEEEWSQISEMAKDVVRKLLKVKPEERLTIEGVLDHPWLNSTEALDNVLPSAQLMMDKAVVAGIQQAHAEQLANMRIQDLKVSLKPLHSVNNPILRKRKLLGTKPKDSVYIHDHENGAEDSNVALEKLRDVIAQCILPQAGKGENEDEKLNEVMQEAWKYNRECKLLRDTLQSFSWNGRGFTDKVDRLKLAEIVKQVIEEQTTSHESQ

For assay [3], the target named is Phosphatidylethanolamine-binding protein 1 (Homo sapiens, UniProt P30086).
Phosphatidylethanolamine-binding protein 1, sequence (P30086 whole entry): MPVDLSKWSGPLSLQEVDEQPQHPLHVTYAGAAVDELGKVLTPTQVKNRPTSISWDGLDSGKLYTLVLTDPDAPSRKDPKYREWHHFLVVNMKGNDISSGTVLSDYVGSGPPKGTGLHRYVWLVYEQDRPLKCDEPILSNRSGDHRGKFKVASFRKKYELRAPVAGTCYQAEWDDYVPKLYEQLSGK
In assay [4] the target is T3, Phosphatidylinositol 5-phosphate 4-kinase type-2 gamma (Homo sapiens, UniProt Q8TBX8).
T3 sequence (Q8TBX8 whole entry): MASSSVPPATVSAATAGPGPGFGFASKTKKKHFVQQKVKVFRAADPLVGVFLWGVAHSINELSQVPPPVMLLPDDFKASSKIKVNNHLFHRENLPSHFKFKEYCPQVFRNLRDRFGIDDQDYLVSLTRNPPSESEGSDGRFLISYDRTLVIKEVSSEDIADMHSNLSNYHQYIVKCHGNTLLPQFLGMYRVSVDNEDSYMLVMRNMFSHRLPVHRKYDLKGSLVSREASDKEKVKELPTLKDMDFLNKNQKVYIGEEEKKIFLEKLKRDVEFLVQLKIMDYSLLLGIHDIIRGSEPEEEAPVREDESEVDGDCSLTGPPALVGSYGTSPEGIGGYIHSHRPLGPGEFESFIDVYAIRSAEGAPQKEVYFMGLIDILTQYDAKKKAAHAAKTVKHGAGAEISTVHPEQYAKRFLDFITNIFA

The next assay addresses T4, Rab-like protein 3 (Homo sapiens, UniProt Q5HYI8).
T4 sequence (Q5HYI8 whole entry): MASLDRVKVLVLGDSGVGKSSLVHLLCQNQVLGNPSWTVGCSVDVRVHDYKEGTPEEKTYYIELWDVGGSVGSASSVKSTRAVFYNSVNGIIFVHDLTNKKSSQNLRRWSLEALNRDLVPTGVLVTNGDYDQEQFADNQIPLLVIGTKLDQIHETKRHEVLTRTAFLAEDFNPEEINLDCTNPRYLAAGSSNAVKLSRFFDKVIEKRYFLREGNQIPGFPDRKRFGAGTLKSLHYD

Assay [5] has as its target Proto-oncogene tyrosine-protein kinase Src (Homo sapiens, UniProt P12931).
For a further assay, the target named is T5, TGF-beta receptor type-1 (Homo sapiens, UniProt P36897).
T5 sequence (P36897 whole entry): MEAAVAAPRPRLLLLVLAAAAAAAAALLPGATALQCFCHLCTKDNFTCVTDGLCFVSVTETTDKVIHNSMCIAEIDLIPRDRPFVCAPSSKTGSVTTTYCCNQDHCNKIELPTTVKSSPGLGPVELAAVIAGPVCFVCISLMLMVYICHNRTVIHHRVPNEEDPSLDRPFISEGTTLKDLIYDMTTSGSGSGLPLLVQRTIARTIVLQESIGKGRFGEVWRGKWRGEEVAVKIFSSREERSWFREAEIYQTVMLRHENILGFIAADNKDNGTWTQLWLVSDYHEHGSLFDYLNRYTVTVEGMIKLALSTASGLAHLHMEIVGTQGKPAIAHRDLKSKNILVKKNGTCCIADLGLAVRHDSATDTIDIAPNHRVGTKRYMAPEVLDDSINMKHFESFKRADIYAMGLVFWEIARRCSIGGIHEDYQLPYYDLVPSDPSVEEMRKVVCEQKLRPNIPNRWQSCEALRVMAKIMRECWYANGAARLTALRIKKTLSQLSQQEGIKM

This note sets out measurements from ChEMBL document CHEMBL3991601, “The target landscape of clinical kinase drugs” (Science, 2017).

Structures are written as SMILES. Activity calls are given as the source filed them.
Further: in the data inactive means no Kd found up to 30 µM.

Proto-oncogene tyrosine-protein kinase Src, sequence (P12931 2-536 limits assumed): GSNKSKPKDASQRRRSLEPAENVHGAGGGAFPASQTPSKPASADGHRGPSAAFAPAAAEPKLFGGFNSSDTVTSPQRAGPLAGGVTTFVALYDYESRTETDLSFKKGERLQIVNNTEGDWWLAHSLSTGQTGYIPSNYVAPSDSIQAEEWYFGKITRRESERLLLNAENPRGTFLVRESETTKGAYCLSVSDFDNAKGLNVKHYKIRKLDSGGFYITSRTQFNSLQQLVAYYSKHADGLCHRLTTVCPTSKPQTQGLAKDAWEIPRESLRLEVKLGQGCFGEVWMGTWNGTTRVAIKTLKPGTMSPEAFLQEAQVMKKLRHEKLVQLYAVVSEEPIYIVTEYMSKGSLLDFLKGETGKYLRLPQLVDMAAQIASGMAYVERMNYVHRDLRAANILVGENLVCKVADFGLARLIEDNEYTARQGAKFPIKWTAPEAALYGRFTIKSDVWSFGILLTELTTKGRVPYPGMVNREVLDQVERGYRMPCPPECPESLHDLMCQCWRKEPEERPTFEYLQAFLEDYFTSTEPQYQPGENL

For `O=C(Nc1cc(C(F)(F)F)cc(C(F)(F)F)c1)c1cc(Cl)ccc1O` [IMD-0354], the Kd (in assay [1]; in assay [2]; in assay [3]; in assay [4]; on Rab-like protein 3; in assay [5]) was > 30 µM (inactive) in each case. Also, the Kd at TGF-beta receptor type-1 is > 30 µM (inactive).

As to `Cn1cc(-c2cnc3ccc4ccc(CS(=O)(=O)NCc5ccccn5)cc4c(=O)c3c2)cn1` [MK-8033], the Kd (in assay [1]; in assay [2]; in assay [3]; in assay [4]; at Rab-like protein 3; in assay [5]) was > 30 µM (inactive) each time. Moreover, the Kd on TGF-beta receptor type-1 is > 30 µM (inactive).

Take `COc1ncc(-c2ccc3nccc(-c4ccnnc4)c3c2)cc1NS(=O)(=O)c1ccc(F)cc1F` [OMIPALISIB]: the Kd in assay [1] is > 30 µM (inactive); in assay [2], > 30 µM (inactive); in assay [3], > 30 µM (inactive); in assay [4] it was 1.37 µM (active); at Rab-like protein 3, > 30 µM (inactive); in assay [5] it was > 30 µM (inactive). In addition, the Kd on TGF-beta receptor type-1 is > 30 µM (inactive).

Regarding `CCCCCCCCCCCCCCCCCCOP(=O)([O-])OC1CC[N+](C)(C)CC1` [PERIFOSINE], the Kd (in assay [1]; in assay [2]; in assay [3]; in assay [4]; at Rab-like protein 3; in assay [5]) was > 30 µM (inactive) each time. Also, at TGF-beta receptor type-1, the Kd is > 30 µM (inactive).

Regarding `Cc1nc(Nc2n[nH]c3c2CN(C(=O)N[C@H](CN(C)C)c2ccccc2)C3(C)C)c2sccc2n1` [PF-03758309], the Kd is > 30 µM (inactive) in assay [1]; > 30 µM (inactive) in assay [2]; > 30 µM (inactive) in assay [3]; > 30 µM (inactive) in assay [4]; > 30 µM (inactive) on Rab-like protein 3; 2.08 µM (active) in assay [5]. The Kd on TGF-beta receptor type-1 is > 30 µM (inactive).

On to `Cc1cnc(NC(=O)Nc2cc(Br)c(C)cc2OC[C@@H]2CNCCO2)cn1` [RABUSERTIB], for which the Kd (in assay [1]; in assay [2]; in assay [3]; in assay [4]; on Rab-like protein 3; in assay [5]) was > 30 µM (inactive) throughout. In addition, on TGF-beta receptor type-1, the Kd is > 30 µM (inactive).

As for `N#CC1(c2ccc(NC(=O)c3cccnc3NCc3ccncc3)cc2)CCCC1` [RIVOCERANIB], the Kd (in assay [1]; in assay [2]; in assay [3]; in assay [4]; at Rab-like protein 3; in assay [5]) was > 30 µM (inactive) each time. On TGF-beta receptor type-1, the Kd is > 30 µM (inactive).

In the case of `O=c1[nH]ccc2cc(OC3CCNCC3)ccc12` [SAR-407899 FREE BASE], the Kd (in assay [1]; in assay [2]; in assay [3]; in assay [4]; on Rab-like protein 3; in assay [5]) was > 30 µM (inactive) throughout. In addition, at TGF-beta receptor type-1, the Kd was > 30 µM (inactive).

For the compound `Cn1cc(-c2cnn3c(N)c(Br)c([C@@H]4CCCNC4)nc23)cn1` [SCH-900776], the Kd (in assay [1]; in assay [2]; in assay [3]; in assay [4]; on Rab-like protein 3; in assay [5]) was > 30 µM (inactive) each time. On TGF-beta receptor type-1, the Kd is > 30 µM (inactive).

For `CCS(=O)(=O)c1cccc(-c2cc(C(=O)NC3CCN(C)CC3)c(C)c3[nH]c4ncc(C)cc4c23)c1` [TAK-901], the Kd in assay [1] was > 30 µM (inactive); in assay [2] it was > 30 µM (inactive); in assay [3], > 30 µM (inactive); in assay [4] it was > 30 µM (inactive); on Rab-like protein 3 it was > 30 µM (inactive); in assay [5] it was 0.092 µM (active). In addition, the Kd at TGF-beta receptor type-1 was 0.197 µM (active).

As for `CO[C@H]1C[C@@H]2CC[C@@H](C)[C@@](O)(O2)C(=O)C(=O)N2CCCC[C@H]2C(=O)O[C@H]([C@H](C)C[C@@H]2CC[C@@H](OC(=O)C(C)(CO)CO)[C@H](OC)C2)CC(=O)[C@H](C)/C=C(\C)[C@@H](O)[C@@H](OC)C(=O)[C@H](C)C[C@H](C)/C=C/C=C/C=C/1C` [TEMSIROLIMUS], the Kd (in assay [1]; in assay [2]; in assay [3]; in assay [4]; on Rab-like protein 3; in assay [5]) was > 30 µM (inactive) throughout. On TGF-beta receptor type-1, the Kd was > 30 µM (inactive).

Consider `O=C(Cc1ccc(-c2ccc(OCCN3CCOCC3)cc2)cn1)NCc1ccccc1` [TIRBANIBULIN], for which the Kd (in assay [1]; in assay [2]; in assay [3]; in assay [4]; on Rab-like protein 3; in assay [5]) was > 30 µM (inactive) throughout. In addition, the Kd on TGF-beta receptor type-1 was > 30 µM (inactive).

Take `O=C1NC(=O)[C@@H](c2cn3c4c(cccc24)CCC3)[C@@H]1c1c[nH]c2ccccc12` [TIVANTINIB]: the Kd in assay [1] is 0.232 µM; in assay [2], > 30 µM (inactive); in assay [3] it was > 30 µM (inactive); in assay [4], > 30 µM (inactive); on Rab-like protein 3 it was > 30 µM (inactive); in assay [5], > 30 µM (inactive). Further, on TGF-beta receptor type-1, the Kd was > 30 µM (inactive).
